Legend:
[1] = tested on: BaF3 cells expressing FIG-ROS(S); experiment: Cleaved caspase-3 flow cytometry apoptosis assay, BaF3 FIG-ROS(S); assay type: cell-based, Murine; settings: presence of TAE-684
Description: (§1) The mechanism of death of the BaF3 and Karpas 299 cells was next reviewed by measuring the percentage of cleaved-caspase 3 positive cells by flow cytometry assay using cleaved caspase-3 as a marker for apoptosis.

[2] = tested on: BaF3 expressing FIG-ROS(L); experiment: MTS cell growth assay, BaF3 expressing FIG-ROS(L); assay type: cell-based, Murine; settings: 0-1000 nM TAE-684, 72 hours
Method: (§2) BaF3 cells were transduced with retrovirus encoding FIG-ROS(S), FIG-ROS(L), or FLT-31TD (the Internal tandem duplication mutation in FLT3 causes AML leukemia), and selected for IL3 independent growth. Karpas 299 cells, which express NPM-ALK, was used as a positive control.
(§3) After 72 hours, 20 ul of the CellTiter 96 Aqueous One Solution Reagent was added into each well of a 96 well assay plate (flat bottom), and then 100 ul of cells grown with or without treatment. Media-only wells were used as controls. The 96 well plate was incubated for 1-4 hours at 37° C., and then viable cells were counted by reading the absorbance at 490 nm using a 96 well plate reader.

Karpas 299 cells [3] = experiment: MTS cell growth assay, Karpas 299 cells (NPM-ALK); assay type: cell-based; settings: 0-1000 nM TAE-684, 72 hours
Method: as §2, §3

FIG-ROS(L) = FIG-ROS(L) (Homo sapiens, UniProt P08922); experiment: Western blotting of phosphorylation, BaF3 FIG-ROS(L); assay type: cell-based; settings: 0, 10, 50, or 100 nM TAE-684 for three hours
Karpas 299 cells [4] = experiment: Cleaved caspase-3 flow cytometry apoptosis assay, Karpas 299; assay type: cell-based; settings: presence of TAE-684
Description: as §1

[5] = tested on: BaF3 cells expressing FIG-ROS(L); experiment: Cleaved caspase-3 flow cytometry apoptosis assay, BaF3 FIG-ROS(L); assay type: cell-based, Murine; settings: presence of TAE-684
Description: as §1

BaF3 expressing FLT3ITD = experiment: MTS cell growth assay, BaF3 transduced with FLT3/ITD; assay type: cell-based, Murine; settings: 0-1000 nM TAE-684, 72 hours
Method: as §2, §3

[6] = tested on: BaF3 expressing FIG-ROS(S); experiment: MTS cell growth assay, BaF3 expressing FIG-ROS(S); assay type: cell-based, Murine
Method: as §2, §3

FIG-ROS(S) = FIG-ROS(S) (Homo sapiens, UniProt P08922); experiment: Western blotting of phosphorylation, BaF3 FIG-ROS(S); assay type: cell-based; settings: 0, 10, 50, or 100 nM TAE-684 for three hours
[7] = tested on: BaF3 cells transduced with the FLT-31TD retrovirus; experiment: Western blotting of phosphorylation, BaF3 FLT-31TD; assay type: cell-based, Murine; settings: 0, 10, 50, or 100 nM TAE-684 for three hours
[8] = tested on: Ros (D4D6) XP™ Rabbit mAb; settings: HCC78 cells; antibody 0.19 μg/ml; peptide 1.9 ug/ml
Method: Briefly, paraffin embedded HCC78 cell pellets were deparaffinized and rehydrated through three changes of xylene and graded ethanol, then rinsed in diH2O. Slides were subjected to antigen retrieval in 1.0 mM EDTA, pH 8.0 in the microwave. After blocking for 1 hour in TBST/5% goat serum, slides were incubated overnight at 4° C. with Ros (D4D6) XP™ Rabbit mAb at 0.19 μg/ml in the absence of peptide or in the presence of one of 13 different ROS peptides at 1.9 ug/ml.
After washing, detection was performed with SignalStain® Boost IHC Detection Reagent (HRP, Rabbit) #8114 and NovaRed (Vector Laboratories, Burlingame, Calif.).

Row | phosphorylation of FIG-ROS(L) (FIG-ROS(L)) | phosphorylation of STAT3, AKT, and ERK, and Shp2 (downstream signaling molecules) (FIG-ROS(L)) | phosphorylation of FIG-ROS(S) (FIG-ROS(S)) | phosphorylation of STAT3, AKT, and ERK, and Shp2 (downstream signaling molecules) (FIG-ROS(S)) | Compound | death by apoptosis (cleaved-caspase 3 positive cells) [1] | cellular growth response in the presence of TAE-684 [2] | cellular growth response in the presence of TAE-684 (Karpas 299 cells [3]) | cell cycle arrest (Karpas 299 cells [4]) | death by apoptosis (cleaved-caspase 3 positive cells) (Karpas 299 cells [4]) | death by apoptosis (cleaved-caspase 3 positive cells) [5] | cellular growth response in the presence of TAE-684 (BaF3 expressing FLT3ITD) | cellular growth response in the presence of TAE-684 ([6]; BaF3 FIG-ROS(S), 0-1000 nM TAE-684, 72 hours, MTS) | susceptibility of FIG-ROS(S) to TAE-684 compared with FIG-ROS(L) ([6]; BaF3 cells, MTS assay) | phosphorylation of STAT3, AKT, and ERK, and Shp2 [7] | competition of ROS antibody binding off the IHC slide [8]
1 | inhibited | inhibited | inhibited | inhibited | COc1cc(N2CCC(N3CCN(C)CC3)CC2)ccc1Nc1ncc(Cl)c(Nc2ccccc2S(=O)(=O)C(C)C)n1 [TAE-684] | die by apoptosis | stopped growing | stopped growing | underwent cell cycle arrest | did not die by apoptosis | die by apoptosis | not susceptible | stopped growing | less susceptible | not affected | 
2 |  |  |  |  | (biotin)AGAGVAYCPSGKPE [peptide 9] |  |  |  |  |  |  |  |  |  |  | able to compete

Reference: patent US9364477B2, “Mutant ROS expression in human cancer” (Cell Signaling Technology, Inc., priority 2009, dated 2016)
